Patent publication US7705203B2, “Benzoate inductible promoters” (Purdue Research Foundation, priority 2002, dated 2010)
Entries after “also recorded” stand apart in the source; their conditions may differ.

B1: GAD1: protein encoded by yeast one-hybrid clone GAD1 (SEQ ID NO:15), candidate transcription factor binding BREF51 (protein)
chain: MVSFKSLLTATTLATAVLAIPHSGHGHGSHKHRSTHVASKRTSSSKRGAAYNSASSVHTLTSGSSGNGTVSWAYDWNMYADGTLPSNVEYVPMLWGSKMFGGWLTAIETALDSGSNYIMGFNEPDSSSQASMTASEAASSYKNYITPYSGKAKLVTPAVTSSTTEGEGLSWMKSFLSECSECDMSVLAVHWYGTSADEFKSFVQEAMQVADDNGLDETWVTEFALTSDESAGGDESSAADFLDEGVGRYAYYMCADGYLLSGEELSSSGKVYVA
modifications: Aspergillus niger
B2: GAD11: protein encoded by yeast one-hybrid clone GAD11 (SEQ ID NO:17), candidate transcription factor binding BREF51 (protein)
chain: DSAESRFSLHSQGSVPPAPSTATKHMTPHNHTNNHGGPLPSKPGSEGASNNGTQITGPHESNLIEQFREREDKLWAYVRSVHEELNGLRTEVAALRAQLASANVNALAMSSQSAPQSQPETNAAGTSQR
modifications: Aspergillus niger

How the values were obtained:
bphA gene = assay: RNA (Northern) blot of bphA gene transcription in mycelia; type: cell-based, Aspergillus niger; conditions: 8 mM inducer, RNA blot (FIG. 4)
Protocol: The time course gene expression induction was examined by analyzing total RNA at different times after adding benzoic acid. Northern (RNA) blots were carried out using total RNA extracted from mycelia grown for different periods of time in the presence of benzoic acid. Initially, the fungus was inoculated in CM medium (Pontecorvo (1953) Adv. Genet. 5: 141-238) for 24 hours, transferred to benzoate-containing medium (0.1% w/v) for different times, and total RNA was extracted using the Rneasy Plant Total RNA kit (Qiagen Inc, Valencia, Calif.) according to the manufacturer's instructions. Total RNA was resolved on a formaldehyde-agarose gel and transferred to a Hybond-N nylon membrane (Amersham Life Sci. Inc, Arlington Heights, Ill.). Radiolabeled BPH probe was allowed to hybridize to the membrane, as described above. Northern blot methods were also carried out as recommended (Amersham).
Different benzoate concentrations and inducers were used to better characterize the inducibility of the bphA gene. Gene expression was assayed by Northern blots. Benzoate 4-hydroxylase activity is also assessed by enzymatic assays to confirm the inducibility at the transcriptional level described by Van Gorcom et al. ((1990) Mol. Gen. Genet. 223, 192-197). Inducibility is also verified by reverse transcription of mRNAs produced under induction conditions.
To verify the inducibility of the bphA gene by benzoic acid, A. niger was inoculated in complete medium and grown for 24 hours before being transferred to fresh medium containing 0.1% benzoic acid. Mycelia were harvested after different periods of induction, and total RNA was extracted.

BRE = assay: Activation of BRE fused to GFP in fungal protoplasts (surface receptor test); type: cell-based
Protocol: While not necessary to understand to practice the invention, a more complicated mechanism of induction may include a surface receptor that binds to benzoate and which then initiates either some kind of signal transduction cascade or the release of a TF that then culminates in the activation of the BPH promoter (FIGS. 12C and D). The hypothesis of a surface receptor was tested by using the p-NH2-benzoate coupled to agarose (as described above) as a non-cleavable external probe. Fungal protoplasts containing the BRE fused to GFP were then prepared, and activation of the BRE (production of the GFP marker) by addition of the agarose-immobilized benzoate derivative to the fungal protoplasts was scored. […] In order to investigate whether the disparity of size between the larger agarose beads and fungal protoplasts may have caused steric problems in binding of the inducer, smaller ligands still incapable of uptake are constructed and utilized to confirm a non-membrane surface location.
The hypothesis of a surface receptor was tested by using the p-NH2-benzoate coupled to agarose (as described above) as a non-cleavable external probe. Fungal protoplasts containing the BRE fused to GFP were then prepared, and activation of the BRE (production of the GFP marker) by addition of the agarose-immobilized benzoate derivative to the fungal protoplasts was scored. […]

BREF51 = assay: Electrophoretic Mobility Shift Assay (EMSA) with total protein extracts from yeast GAD clones; type: binding, A. niger; conditions: 5 μg total yeast protein extract
Source text: The protein encoded by GAD1 (SEQ ID NO:15) is highly similar to a predicted protein present in the A. nidulans genome (E value 2e^−83), and similar to a hypothetical protein (B24P11.210) in the N. crassa genome (E value 4e^−27) (Table 2). GAD1 protein is rich in serine residues (16%), and is predicted by PSORTII (Nakai and Horton (1999) Trends Biochem. Sci. 24: 34-35) to be localized in the nucleus (70.6% probability). […] Serine-rich motifs can be phosphorylation targets by protein kinase C in proteins (Branden and Tooze (1999) Introduction to protein structure, 2nd ed. Garland Publishing, New York, N.Y. 410 p.). […] While not necessary to understand in order to practice the present invention, if GAD1 is involved in the regulation of BPHprom, GAD1 protein might be always bound to a benzoic acid response element in the bphA promoter. […] However, addition of benzoic acid could cause phosphorylation of one of the serine residues in GAD1, leading to its activation. […]
Positive clones identified on the one-hybrid screen were grown in 100 mL of SD/-Leu media, and total proteins were extracted following a modified procedure from that described by Arndt et al. ((1987) Science 237: 874-880). […] Protein concentration of the resulting supernatant was determined by the Bradford method (Bio-Rad, Hercules, Calif.), and BSA was used as a standard.

Row | Molecule | induction of transcription of the bphA gene (bphA gene) | other results
1 | OCc1ccccc1 [benzyl alcohol] | do not induce the promoter | induction of transcription of the bphA gene (bphA gene; listed as Benzyl alcohol): not effective inducers
2 | O=C(O)CCc1ccccc1 [hydrocinnamic acid] | do not induce the promoter; also recorded: not effective inducers | 
3 | COC(=O)c1ccccc1 [methyl benzoate] | can induce the promoter; also recorded: induced | 
4 | Nc1ccc(C(=O)O)cc1 [p-aminobenzoate] |  | GFP fluorescence in the BRE-GFP transformed line (BRE): induced GFP fluorescence
5 | O=C([O-])c1ccccc1.[Na+] [sodium benzoate] | can induce the promoter; also recorded: induced | 
6 | B1 |  | gel mobility shift of the BREF51 fragment (BREF51): showed a gel mobility shift; also recorded: positive mobility shifts
7 | B2 |  | gel mobility shift of the BREF51 fragment (BREF51): showed a gel mobility shift; also recorded: positive mobility shifts
